Earlier results, collected in patent US20040186131A1, “Method of preventing or treating atherosclerosis or restenosis” (priority 2002, published 2004).

Tested on: CMV infection of rats
Details: DHPG prophylaxis

## Nc1nc(O)c2ncn(COC(CO)CO)c2n1 [Ganciclovir]
  prevention of atherosclerosis resulting from CMV infection: prevent atherosclerosis
